# Patent publication US9487515B2, “Compounds modulating c-fms and/or c-kit activity and uses therefor” (Plexxikon Inc., priority 2006, dated 2016)
# How the values were obtained:
# MAP4K4 (HGK) = MAP4K4 (HGK) (Homo sapiens, UniProt O95819); assay: HGK biochemical assay (AlphaScreen); conditions: 10 μM ATP
# Procedure: Substrate was 10 nM biotin-ERM (T567/T564/T558, Cell Signaling, Inc., cat#1344). MAP4K4 kinase was at 0.5 ng per sample.
# c-kit = c-kit (Homo sapiens, UniProt P10721); assay: c-kit assays of Examples 40 and 41 (AlphaScreen kinase assays at 10 and 100 μM ATP, 33P-ATP filter assay, M-07e SCF-stimulated proliferation and phosphorylation)
# Chain of c-kit (P10721 with tags, fused parts or gaps): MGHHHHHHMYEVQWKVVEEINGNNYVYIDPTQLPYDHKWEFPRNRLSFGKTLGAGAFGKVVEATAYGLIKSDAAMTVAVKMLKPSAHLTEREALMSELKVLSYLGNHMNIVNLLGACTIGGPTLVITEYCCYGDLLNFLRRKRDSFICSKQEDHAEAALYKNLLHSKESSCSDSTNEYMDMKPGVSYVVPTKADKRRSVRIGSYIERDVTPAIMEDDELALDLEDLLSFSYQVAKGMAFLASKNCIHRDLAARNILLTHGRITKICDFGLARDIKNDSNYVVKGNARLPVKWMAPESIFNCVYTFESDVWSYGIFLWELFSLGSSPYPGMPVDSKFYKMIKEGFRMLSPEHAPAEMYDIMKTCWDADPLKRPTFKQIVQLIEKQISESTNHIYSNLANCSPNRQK
# Chain of MAP4K4 (HGK) (O95819 whole entry): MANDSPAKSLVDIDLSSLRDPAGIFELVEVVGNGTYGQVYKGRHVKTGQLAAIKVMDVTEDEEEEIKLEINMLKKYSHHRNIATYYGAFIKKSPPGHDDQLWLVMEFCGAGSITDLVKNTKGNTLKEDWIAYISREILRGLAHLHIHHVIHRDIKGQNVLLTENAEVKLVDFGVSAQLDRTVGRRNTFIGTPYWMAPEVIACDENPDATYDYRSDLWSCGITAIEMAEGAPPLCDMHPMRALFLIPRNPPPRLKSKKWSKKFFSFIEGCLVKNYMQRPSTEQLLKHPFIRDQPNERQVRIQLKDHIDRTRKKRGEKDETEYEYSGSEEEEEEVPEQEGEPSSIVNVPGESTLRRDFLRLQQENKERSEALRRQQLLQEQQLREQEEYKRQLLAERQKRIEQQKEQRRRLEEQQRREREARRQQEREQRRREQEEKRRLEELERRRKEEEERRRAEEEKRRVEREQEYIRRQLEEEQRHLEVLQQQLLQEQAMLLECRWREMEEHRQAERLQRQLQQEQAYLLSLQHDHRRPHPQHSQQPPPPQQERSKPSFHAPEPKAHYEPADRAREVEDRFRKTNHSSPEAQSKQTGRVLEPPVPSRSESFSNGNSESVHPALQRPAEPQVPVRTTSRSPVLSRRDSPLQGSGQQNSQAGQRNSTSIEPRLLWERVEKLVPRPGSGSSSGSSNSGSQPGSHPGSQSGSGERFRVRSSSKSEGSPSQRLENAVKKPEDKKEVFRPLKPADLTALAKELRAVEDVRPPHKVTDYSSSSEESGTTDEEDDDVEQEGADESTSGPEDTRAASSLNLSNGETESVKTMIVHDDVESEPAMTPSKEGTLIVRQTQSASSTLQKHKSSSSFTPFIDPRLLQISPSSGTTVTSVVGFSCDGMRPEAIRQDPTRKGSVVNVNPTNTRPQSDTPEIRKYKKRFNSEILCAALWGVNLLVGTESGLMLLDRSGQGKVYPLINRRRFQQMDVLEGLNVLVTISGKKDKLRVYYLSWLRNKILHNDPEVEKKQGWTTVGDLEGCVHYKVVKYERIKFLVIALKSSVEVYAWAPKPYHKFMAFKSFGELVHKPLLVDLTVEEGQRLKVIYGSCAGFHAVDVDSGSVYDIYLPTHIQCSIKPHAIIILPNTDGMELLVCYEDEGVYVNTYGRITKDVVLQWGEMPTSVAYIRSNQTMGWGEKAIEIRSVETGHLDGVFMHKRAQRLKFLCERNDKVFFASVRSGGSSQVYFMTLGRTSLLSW
Structure (SMILES),IC50 (MAP4K4 (HGK)),IC50 (c-kit)
"Fc1cncc(CNc2nc(Cl)c(Cc3c[nH]c4ncc(Cl)cc34)s2)c1 [P-0231, [4-Chloro-5-(5-chloro-1H-pyrrolo[2,3-b]pyridin-3-ylmethyl)-thiazol-2-yl]-(5-fluoro-pyridin-3-ylmethyl)-amine]",< 1 µM,
"COc1cncc(CNc2nc(Cl)c(Cc3c[nH]c4ncccc34)s2)c1 [P-0207, [4-Chloro-5-(1H-pyrrolo[2,3-b]pyridin-3-ylmethyl)-thiazol-2-yl]-(5-methoxy-pyridin-3-ylmethyl)-amine]",< 1 µM,
"O=C(c1ccc(NCc2ccccc2F)nc1)c1c[nH]c2ncccc12 [P-0403, [6-(2-fluoro-benzylamino)-pyridin-3-yl]-(1H-pyrrolo[2,3-b]pyridin-3-yl)-methanone]",< 1 µM,
"Cn1c(CNc2ccc(Cc3c[nH]c4ncccc34)cn2)nc2ccccc21 [P-0218, (1-Methyl-1H-benzoimidazol-2-ylmethyl)-[5-(1H-pyrrolo[2,3-b]pyridin-3-ylmethyl)-pyridin-2-yl]-amine]",,< 1 µM
"CCOc1ccccc1CNc1ccc(Cc2c[nH]c3ncccc23)cn1 [P-0288, (2-Ethoxy-benzyl)-[5-(1H-pyrrolo[2,3-b]pyridin-3-ylmethyl)-pyridin-2-yl]-amine]",,< 1 µM
"Fc1cc(C(F)(F)F)ccc1CNc1ncc(Cc2c[nH]c3ncc(Cl)cc23)cn1 [P-0394, [5-(5-Chloro-1H-pyrrolo[2,3-b]pyridin-3-ylmethyl)-pyrimidin-2-yl]-(2-fluoro-4-trifluoromethyl-benzyl)-amine]",,< 1 µM
"FC(F)(F)c1ccccc1CNc1ncc(Cc2c[nH]c3ncccc23)cn1 [P-0302, [5-(1H-Pyrrolo[2,3-b]pyridin-3-ylmethyl)-pyrimidin-2-yl]-(2-trifluoromethyl-benzyl)-amine]",,< 1 µM
"COc1ccccc1CNc1ccc(Cc2c[nH]c3ncccc23)cn1 [P-0336, (2-Methoxy-benzyl)-[5-(1H-pyrrolo[2,3-b]pyridin-3-ylmethyl)-pyridin-2-yl]-amine]",,< 1 µM
"c1cncc(CNc2ccc(Cc3c[nH]c4ncccc34)cn2)c1 [P-0094, Pyridin-3-ylmethyl-[5-(1H-pyrrolo[2,3-b]pyridin-3-ylmethyl)-pyridin-2-yl]-amine]",,< 1 µM
"c1cnc2[nH]cc(Cc3ccc(NCc4ccc(CN5CCOCC5)cc4)nc3)c2c1 [P-0093, (4-Morpholin-4-ylmethyl-benzyl)-[5-(1H-pyrrolo[2,3-b]pyridin-3-ylmethyl)-pyridin-2-yl]-amine]",,< 1 µM
"Fc1ccc(F)c(CNc2ncc(Cc3c[nH]c4ncc(Cl)cc34)cn2)c1 [P-0267, [5-(5-Chloro-1H-pyrrolo[2,3-b]pyridin-3-ylmethyl)-pyrimidin-2-yl]-(2,5-difluoro-benzyl)-amine]",,< 1 µM
"FC(F)Oc1ccccc1CNc1ccc(Cc2c[nH]c3ncccc23)cn1 [P-0367, (2-Difluoromethoxy-benzyl)-[5-(1H-pyrrolo[2,3-b]pyridin-3-ylmethyl)-pyridin-2-yl]-amine]",,< 1 µM
"COc1cccc(C(=O)Nc2ccc(Cc3c[nH]c4ncccc34)cn2)c1 [P-0120, 3-Methoxy-N-[5-(1H-pyrrolo[2,3-b]pyridin-3-ylmethyl)-pyridin-2-yl]-benzamide]",,< 1 µM
"Fc1ccc(Cc2c[nH]c3ncccc23)c(F)n1 [P-0154, 3-(2,6-difluoro-pyridin-3-ylmethyl)-1H-pyrrolo[2,3-b]pyridine]",,< 1 µM
"COc1ccc(Cc2c[nH]c3nccc(-c4ccsc4)c23)cn1 [P-0022, 3-(6-Methoxy-pyridin-3-ylmethyl)-4-thiophen-3-yl-1H-pyrrolo[2,3-b]pyridine]",,< 1 µM
"COc1cnc2[nH]cc(Cc3ccc(NCc4c(F)cccc4F)nc3)c2c1 [P-0334, (2,6-Difluoro-benzyl)-[5-(5-methoxy-1H-pyrrolo[2,3-b]pyridin-3-ylmethyl)-pyridin-2-yl]-amine]",,< 1 µM
"CCc1ccccc1CNc1ccc(Cc2c[nH]c3ncccc23)cn1 [P-0383, (2-Ethyl-benzyl)-[5-(1H-pyrrolo[2,3-b]pyridin-3-ylmethyl)-pyridin-2-yl]-amine]",,< 1 µM
"FC(F)(F)Oc1ccccc1CNc1ccc(Cc2c[nH]c3ncccc23)cn1 [P-0322, [5-(1H-Pyrrolo[2,3-b]pyridin-3-ylmethyl)-pyridin-2-yl]-(2-trifluoromethoxy-benzyl)-amine]",,< 1 µM
"c1cc(CNc2ccc(Cc3c[nH]c4ncccc34)cn2)cc(N2CCOCC2)c1 [P-0126, (3-Morpholin-4-yl-benzyl)-[5-(1H-pyrrolo[2,3-b]pyridin-3-ylmethyl)-pyridin-2-yl]-amine]",,< 1 µM
"Clc1cnc2[nH]cc(Cc3cnc(NCc4ccccc4Cl)nc3)c2c1 [P-0263, (2-Chloro-benzyl)-[5-(5-chloro-1H-pyrrolo[2,3-b]pyridin-3-ylmethyl)-pyrimidin-2-yl]-amine]",,< 1 µM

Structure (SMILES),IC50 (MAP4K4 (HGK)),IC50 (c-kit)
"Clc1cnc2[nH]cc(Cc3sc(NCc4ccccc4)nc3Cl)c2c1 [P-0192, Benzyl-[4-chloro-5-(5-chloro-1H-pyrrolo[2,3-b]pyridin-3-ylmethyl)-thiazol-2-yl]-amine]",,< 1 µM
"Clc1cnc2[nH]cc(Cc3sc(NCc4cccc(N5CCOCC5)n4)nc3Cl)c2c1 [P-0252, [4-Chloro-5-(5-chloro-1H-pyrrolo[2,3-b]pyridin-3-ylmethyl)-thiazol-2-yl]-(6-morpholin-4-yl-pyridin-2-ylmethyl)-amine]",,< 1 µM
"Fc1nc(NCc2ccc(C(F)(F)F)nc2)ccc1Cc1c[nH]c2ncccc12 [P-0188, [6-Fluoro-5-(1H-pyrrolo[2,3-b]pyridin-3-ylmethyl)-pyridin-2-yl]-(6-trifluoromethyl-pyridin-3-ylmethyl)-amine]",,< 1 µM
"COc1cnc2[nH]cc(Cc3ccc(NCc4cc(F)ccc4F)nc3)c2c1 [P-0330, (2,5-Difluoro-benzyl)-[5-(5-methoxy-1H-pyrrolo[2,3-b]pyridin-3-ylmethyl)-pyridin-2-yl]-amine]",,< 1 µM
"Clc1ccccc1CNc1ccc(Cc2c[nH]c3ncccc23)cn1 [P-0216, (2-Chloro-benzyl)-[5-(1H-pyrrolo[2,3-b]pyridin-3-ylmethyl)-pyridin-2-yl]-amine]",,< 1 µM
"Fc1ccc(Cl)c(CNc2ncc(Cc3c[nH]c4ncc(Cl)cc34)cn2)c1 [P-0408, (2-Chloro-5-fluoro-benzyl)-[5-(5-chloro-1H-pyrrolo[2,3-b]pyridin-3-ylmethyl)-pyrimidin-2-yl]-amine]",,< 1 µM
"Clc1cnc2[nH]cc(Cc3sc(NCCc4ccccc4)nc3Cl)c2c1 [P-0244, [4-Chloro-5-(5-chloro-1H-pyrrolo[2,3-b]pyridin-3-ylmethyl)-thiazol-2-yl]-phenethyl-amine]",,< 1 µM
"Fc1ccccc1CNc1ccc(Cc2c[nH]c3ncccc23)cn1 [P-0213, (2-Fluoro-benzyl)-[5-(1H-pyrrolo[2,3-b]pyridin-3-ylmethyl)-pyridin-2-yl]-amine]",,< 1 µM
"FC(F)(F)COc1ccc(CNc2ccc(Cc3c[nH]c4ncc(Cl)cc34)cn2)cn1 [P-0409, [5-(5-Chloro-1H-pyrrolo[2,3-b]pyridin-3-ylmethyl)-pyridin-2-yl]-[6-(2,2,2-trifluoro-ethoxy)-pyridin-3-ylmethyl]-amine]",,< 1 µM
"FC(F)(F)c1ccc(CNc2ccc(Cc3c[nH]c4ncccc34)c(Cl)n2)cn1 [P-0174, [6-Chloro-5-(1H-pyrrolo[2,3-b]pyridin-3-ylmethyl)-pyridin-2-yl]-(6-trifluoromethyl-pyridin-3-ylmethyl)-amine]",,< 1 µM
"c1ccc(CNc2ccc(Cc3c[nH]c4ncccc34)cn2)cc1 [P-0001, benzyl-[5-(1H-pyrrolo[2,3-b]pyridin-3-ylmethyl)-pyridin-2-yl]-amine]",,< 1 µM
"c1cnc2[nH]cc(Cc3ccc(NCCN4CCCC4)nc3)c2c1 [P-0096, (2-Pyrrolidin-1-yl-ethyl)-[5-(1H-pyrrolo[2,3-b]pyridin-3-ylmethyl)-pyridin-2-yl]-amine]",,< 1 µM
"N#Cc1cnc2[nH]cc(Cc3ccc(NCc4ccccc4OC(F)(F)F)nc3)c2c1 [P-0321, 3-[6-(2-Trifluoromethoxy-benzylamino)-pyridin-3-ylmethyl]-1H-pyrrolo[2,3-b]pyridine-5-carbonitrile]",,< 1 µM
"Cn1nc(NCc2ccc(F)cc2)cc1Cc1c[nH]c2ncc(Cl)cc12 [P-0170, [5-(5-Chloro-1H-pyrrolo[2,3-b]pyridin-3-ylmethyl)-1-methyl-1H-pyrazol-3-yl]-(4-fluoro-benzyl)-amine]",,< 1 µM
"FC(F)(F)c1ccc(CNc2ccc(Cc3c[nH]c4ncc(Cl)cc34)c(Cl)n2)cn1 [P-0176, [6-Chloro-5-(5-chloro-1H-pyrrolo[2,3-b]pyridin-3-ylmethyl)-pyridin-2-yl]-(6-trifluoromethyl-pyridin-3-ylmethyl)-amine]",,< 1 µM
"Cc1cnc2[nH]cc(Cc3ccc(NCc4ccccc4Cl)nc3)c2c1 [P-0279, (2-Chloro-benzyl)-[5-(5-methyl-1H-pyrrolo[2,3-b]pyridin-3-ylmethyl)-pyridin-2-yl]-amine]",,< 1 µM
"Cc1nn(Cc2ccc(C(F)(F)F)o2)c(C)c1Cc1c[nH]c2ncccc12 [P-0138, 3-[3,5-Dimethyl-1-(5-trifluoromethyl-furan-2-ylmethyl)-1H-pyrazol-4-ylmethyl]-1H-pyrrolo[2,3-b]pyridine]",,< 1 µM
"O=C(Nc1ccc(Cc2c[nH]c3ncccc23)cn1)c1cccs1 [P-0103, Thiophene-2-carboxylic acid [5-(1H-pyrrolo[2,3-b]pyridin-3-ylmethyl)-pyridin-2-yl]-amide]",,< 1 µM
"O=C(Nc1ccc(Cc2c[nH]c3ncccc23)cn1)c1ccc(F)c(Cl)c1 [P-0115, 3-Chloro-4-fluoro-N-[5-(1H-pyrrolo[2,3-b]pyridin-3-ylmethyl)-pyridin-2-yl]-benzamide]",,< 1 µM
"FC(F)Oc1ccccc1CNc1ccc(Cc2c[nH]c3ncc(Cl)cc23)cn1 [P-0338, [5-(5-Chloro-1H-pyrrolo[2,3-b]pyridin-3-ylmethyl)-pyridin-2-yl]-(2-difluoromethoxy-benzyl)-amine]",,< 1 µM
